Key:
α4β2 nAChR [1] = molecular target: T1, α4β2 nAChR (Rattus norvegicus, UniProt P09483+P12390); assay: [3H]epibatidine binding to α4β2 nAChR in cell membranes; details: binding selectivity for α4β2 over α3β4
α3β4α5 nAChR = assay: binding affinity against α3β4α5 nAChR
α4β2 nAChR [2] = molecular target: T1, α4β2 nAChR; assay: nAChR functional assay, membrane potential change; format: cell-based
α3β4 nAChR = α3β4 nAChR (Rattus norvegicus, UniProt P04757+P12392); assay: nAChR functional assay, membrane potential change; format: cell-based
Sequence of α3β4 nAChR (P04757 26-499): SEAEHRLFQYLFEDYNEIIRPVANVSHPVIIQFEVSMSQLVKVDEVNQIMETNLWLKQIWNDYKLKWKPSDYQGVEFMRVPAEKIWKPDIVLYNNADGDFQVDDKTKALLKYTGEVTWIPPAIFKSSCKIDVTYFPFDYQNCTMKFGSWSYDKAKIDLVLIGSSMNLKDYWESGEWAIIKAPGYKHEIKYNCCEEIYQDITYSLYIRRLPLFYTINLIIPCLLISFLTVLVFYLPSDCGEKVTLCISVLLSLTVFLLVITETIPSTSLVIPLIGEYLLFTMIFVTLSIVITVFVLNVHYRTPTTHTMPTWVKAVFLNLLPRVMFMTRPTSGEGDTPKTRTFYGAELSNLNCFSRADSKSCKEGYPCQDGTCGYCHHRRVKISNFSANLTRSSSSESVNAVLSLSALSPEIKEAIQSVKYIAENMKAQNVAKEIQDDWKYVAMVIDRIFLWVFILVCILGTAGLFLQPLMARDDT
Sequence of α3β4 nAChR (P12392 21-495): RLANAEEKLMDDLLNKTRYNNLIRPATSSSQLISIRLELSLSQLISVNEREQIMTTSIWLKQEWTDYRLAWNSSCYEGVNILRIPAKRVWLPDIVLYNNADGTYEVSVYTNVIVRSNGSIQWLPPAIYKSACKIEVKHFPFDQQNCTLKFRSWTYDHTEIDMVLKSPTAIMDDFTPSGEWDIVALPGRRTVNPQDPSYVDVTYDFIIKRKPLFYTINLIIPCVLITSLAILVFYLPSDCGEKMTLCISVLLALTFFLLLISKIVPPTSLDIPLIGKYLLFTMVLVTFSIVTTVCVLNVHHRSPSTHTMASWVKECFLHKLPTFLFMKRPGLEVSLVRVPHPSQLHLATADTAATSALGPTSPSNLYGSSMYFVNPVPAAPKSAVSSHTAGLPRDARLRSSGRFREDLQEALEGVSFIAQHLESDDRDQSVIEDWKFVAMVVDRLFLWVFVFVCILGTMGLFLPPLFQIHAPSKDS

T1 sequence (P09483 31-630): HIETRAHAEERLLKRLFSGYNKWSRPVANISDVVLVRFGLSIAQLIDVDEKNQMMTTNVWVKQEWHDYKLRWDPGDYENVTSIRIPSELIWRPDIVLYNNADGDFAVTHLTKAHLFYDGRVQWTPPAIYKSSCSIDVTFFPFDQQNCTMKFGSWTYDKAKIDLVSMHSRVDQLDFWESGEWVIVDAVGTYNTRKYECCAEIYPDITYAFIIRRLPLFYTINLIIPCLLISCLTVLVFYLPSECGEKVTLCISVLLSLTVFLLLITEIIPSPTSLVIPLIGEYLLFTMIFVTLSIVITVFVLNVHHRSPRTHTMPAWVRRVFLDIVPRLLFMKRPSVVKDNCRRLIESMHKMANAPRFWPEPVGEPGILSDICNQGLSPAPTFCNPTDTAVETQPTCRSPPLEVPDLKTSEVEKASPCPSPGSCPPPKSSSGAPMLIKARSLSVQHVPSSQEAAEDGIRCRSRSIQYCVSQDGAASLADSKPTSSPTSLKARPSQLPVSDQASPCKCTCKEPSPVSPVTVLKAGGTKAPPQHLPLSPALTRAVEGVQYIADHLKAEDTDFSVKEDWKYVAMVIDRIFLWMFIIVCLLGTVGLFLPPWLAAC
T1 sequence (P12390 25-500): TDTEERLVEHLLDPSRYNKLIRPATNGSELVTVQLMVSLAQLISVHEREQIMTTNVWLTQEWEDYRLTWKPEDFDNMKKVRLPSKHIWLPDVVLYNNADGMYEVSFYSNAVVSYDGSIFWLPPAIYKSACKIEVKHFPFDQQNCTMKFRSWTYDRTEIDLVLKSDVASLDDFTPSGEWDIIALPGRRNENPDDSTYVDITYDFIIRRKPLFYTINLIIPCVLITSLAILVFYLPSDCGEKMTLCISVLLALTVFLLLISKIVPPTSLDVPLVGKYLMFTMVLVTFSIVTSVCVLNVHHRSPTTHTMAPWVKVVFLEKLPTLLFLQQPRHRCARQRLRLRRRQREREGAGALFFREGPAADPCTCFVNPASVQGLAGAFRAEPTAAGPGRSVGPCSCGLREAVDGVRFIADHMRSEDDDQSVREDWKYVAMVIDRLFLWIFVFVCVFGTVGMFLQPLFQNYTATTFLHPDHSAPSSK

## CC(C)(C)C1CCC(CN2C(=N)N(CCCC[C@H]3CNC(=N)N3CCc3cccnc3)C[C@H]2Cc2ccccc2)CC1 (stereo partly drawn) [Compound 301, (R)-4-Benzyl-3-((4-tert-butylcyclohexyl)methyl)-1-(4-((S)-2-imino-3-(2-(pyridin-3-yl)ethyl)imidazolidin-4-yl)butyl)imidazolidin-2-imine]
α4β2 nAChR [1]
  selectivity (fold) (α3β4 Ki/α4β2 Ki): ~500 fold
α3β4α5 nAChR
  binding affinity Kd/Ki against α3β4α5 nAChR: 9.062 µM
α4β2 nAChR [2]; membrane potential change, HEK cells, up to 10 µM
  agonist activity at α4β2 nAChR: no agonist activity
α4β2 nAChR [2]; nicotine dose response curves with various concentrations of 301
  mode of inhibition of nicotine's activity: noncompetitive
α4β2 nAChR [2]; α4β2-containing cells, very high concentrations
  inverse agonist activity: potential inverse agonist activity
α3β4 nAChR
  IC50: > 10 µM
α3β4 nAChR; membrane potential change, HEK cells
  agonist activity at α3β4 nAChR: no agonist activity

## CN1CCC[C@H]1c1cccnc1 [nicotine, reference compound]
α4β2 nAChR [2]; HEK293, read-out: nicotine maximum stimulation
  Emax: 100%

Source: PMC4106133 (Journal of medicinal chemistry, 2013)
